Ki and inhibition data for 80 molecules are collected here from the Kinase Knowledgebase extract (Sharma et al. 2016).

Molecules are shown by their SMILES.

One assay addresses CDK2 (human) (UniProt P24941). Put plainly: Enzyme Assay.
Conditions: not given
`CN(C)CCNc1ccc(S(=O)(=O)N2CCC(Nc3nc(N)c(C(=O)c4c(F)cccc4F)s3)CC2)cn1`: the inhibition constant (Ki) (in general, a dissociation constant, usually derived from enzyme kinetics or from competition with a known ligand) turned out to be 1.2 nM.

The same assay, now with this note: concentration not given here.
For `CO[C@@](C(=O)N1CCC(Nc2nc(N)c(C(=O)c3c(F)cccc3F)s2)CC1)(c1ccccc1)C(F)(F)F`, the inhibition (usually the drop in the measured response relative to a control, in per cent) was -6%. For `COc1ccccc1C(O)C(=O)N1CCC(Nc2nc(N)c(C(=O)c3c(F)cccc3F)s2)CC1` (stereo not given), the inhibition stood at 27%. Take `C/C=C/CC(=O)N1CCC(Nc2nc(N)c(C(=O)c3c(F)cccc3F)s2)CC1`: the inhibition was 62%. Same read-out and setting: under `C=CCC(C)(C)C(=O)N1CCC(Nc2nc(N)c(C(=O)c3c(F)cccc3F)s2)CC1` stands 14%; under `Nc1nc(NC2CCN(C(=O)Cc3cccc(Cl)c3)CC2)sc1C(=O)c1c(F)cccc1F`, 62%. `COc1ccc(OCC(=O)N2CCC(Nc3nc(N)c(C(=O)c4c(F)cccc4F)s3)CC2)cc1`: the inhibition was 74%. The same measure, in the same setting: under `Nc1nc(NC2CCN(C(=O)/C=C/c3ccncc3)CC2)sc1C(=O)c1c(F)cccc1F` stands 80%; under `Nc1nc(NC2CCN(C(=O)CCCS)CC2)sc1C(=O)c1c(F)cccc1F`, 23%; under `CCOc1cccc(C(=O)N2CCC(Nc3nc(N)c(C(=O)c4c(F)cccc4F)s3)CC2)c1`, 75%. In the case of `CC(C)CC(O)C(=O)N1CCC(Nc2nc(N)c(C(=O)c3c(F)cccc3F)s2)CC1` (stereo not given), the inhibition was determined as 57%. The same measure, in the same setting: under `Nc1nc(NC2CCN(C(=O)C3CCOC3)CC2)sc1C(=O)c1c(F)cccc1F` (stereo not given) stands 81%. Same read-out and setting: then `Nc1nc(NC2CCN(C(=O)CS/C=C\c3ccccc3)CC2)sc1C(=O)c1c(F)cccc1F`, with 59%; and `Nc1nc(NC2CCN(C(=O)c3ccc4c(c3)C(=O)OC4=O)CC2)sc1C(=O)c1c(F)cccc1F`, with 53%; and `CC(=O)SC[C@@H](C)C(=O)N1CCC(Nc2nc(N)c(C(=O)c3c(F)cccc3F)s2)CC1`, with 46%. With `CN(C(=O)N1CCC(Nc2nc(N)c(C(=O)c3c(F)cccc3F)s2)CC1)c1ccccc1`, the inhibition was -7%.

Turning to `Nc1nc(NC2CCN(C(=O)Cc3ccccc3)CC2)sc1C(=O)c1c(F)cccc1F`, the inhibition amounted to 66%. Regarding `Nc1nc(NC2CCN(C(=O)CCOc3ccc(F)cc3)CC2)sc1C(=O)c1c(F)cccc1F`, the inhibition was 61%. On the same count and under the same terms, then `Cc1cc(C(=O)N2CCC(Nc3nc(N)c(C(=O)c4c(F)cccc4F)s3)CC2)nn1C`, with 40%; and `Nc1nc(NC2CCN(C(=O)CCc3c[nH]c4ccccc34)CC2)sc1C(=O)c1c(F)cccc1F`, with 56%. Regarding `Nc1nc(NC2CCN(C(=O)c3ccc[n+]([O-])c3)CC2)sc1C(=O)c1c(F)cccc1F`, the inhibition came to 46%. For the molecule `CS(=O)(=O)CS(=O)(=O)N1CCC(Nc2nc(N)c(C(=O)c3c(F)cccc3F)s2)CC1`, the inhibition was -23%. Same read-out and setting: under `CC(=O)CCC(=O)N1CCC(Nc2nc(N)c(C(=O)c3c(F)cccc3F)s2)CC1` stands 15%; under `Cc1ccc(C(=O)N2CCC(Nc3nc(N)c(C(=O)c4c(F)cccc4F)s3)CC2)cc1`, 60%; under `Nc1nc(NC2CCN(C(=O)c3cc4ccccc4o3)CC2)sc1C(=O)c1c(F)cccc1F`, 64%. With `C=CCC/C=C/C(=O)N1CCC(Nc2nc(N)c(C(=O)c3c(F)cccc3F)s2)CC1`, the inhibition came to 69%.

Turning to `CC(C)=CC1C(C(=O)N2CCC(Nc3nc(N)c(C(=O)c4c(F)cccc4F)s3)CC2)C1(C)C` (stereo not given), the inhibition amounted to 10%. The same measure, in the same setting: under `Nc1nc(NC2CCN(C(=O)CC3=CCCCC3)CC2)sc1C(=O)c1c(F)cccc1F` stands 51%; under `CCOC(=O)CCC(=O)N1CCC(Nc2nc(N)c(C(=O)c3c(F)cccc3F)s2)CC1`, 54%. Regarding `CC(Oc1ccccc1)C(=O)N1CCC(Nc2nc(N)c(C(=O)c3c(F)cccc3F)s2)CC1` (stereo not given), the inhibition is -15%. The same measure, in the same setting: then `Cc1ccc(CCCC(=O)N2CCC(Nc3nc(N)c(C(=O)c4c(F)cccc4F)s3)CC2)cc1`, with 38%; and `Cc1ccnc(SCC(=O)N2CCC(Nc3nc(N)c(C(=O)c4c(F)cccc4F)s3)CC2)n1`, with 86%; and `CC1(C)OC(=O)CC1C(=O)N1CCC(Nc2nc(N)c(C(=O)c3c(F)cccc3F)s2)CC1` (stereo not given), with 79%. Same read-out and setting: then `NC(=S)Nc1cccc(C(=O)N2CCC(Nc3nc(N)c(C(=O)c4c(F)cccc4F)s3)CC2)c1`, with 75%; and `Nc1nc(NC2CCN(C(=O)c3csc([N+](=O)[O-])c3)CC2)sc1C(=O)c1c(F)cccc1F`, with 48%.

Regarding `CC(C)(C)C1CCC(C(=O)N2CCC(Nc3nc(N)c(C(=O)c4c(F)cccc4F)s3)CC2)CC1` (stereo not given), the inhibition came out at 34%. For `COc1ccc(C(=O)N2CCC(Nc3nc(N)c(C(=O)c4c(F)cccc4F)s3)CC2)c(OC)c1`, the inhibition is -11%. On the same count and under the same terms, under `Nc1nc(NC2CCN(C(=O)CC3Cc4ccccc4C3)CC2)sc1C(=O)c1c(F)cccc1F` stands 37%; under `Nc1nc(NC2CCN(C(=O)CCCc3ccccc3)CC2)sc1C(=O)c1c(F)cccc1F`, 38%. Regarding `CN(C)c1ccc(/C=C/C(=O)N2CCC(Nc3nc(N)c(C(=O)c4c(F)cccc4F)s3)CC2)cc1`, the inhibition was determined as 75%.

Consider `Nc1nc(NC2CCN(C(=O)[C@H](O)C3CCCCC3)CC2)sc1C(=O)c1c(F)cccc1F`, for which the inhibition worked out at 25%. Still for that read-out and setting: under `COc1ccc(C(=O)N2CCC(Nc3nc(N)c(C(=O)c4c(F)cccc4F)s3)CC2)cc1OC` stands -23%; under `Nc1nc(NC2CCN(C(=O)OCC3c4ccccc4-c4ccccc43)CC2)sc1C(=O)c1c(F)cccc1F`, -12%. As to `Nc1nc(NC2CCN(C(=O)c3ccsc3)CC2)sc1C(=O)c1c(F)cccc1F`, the inhibition stood at 52%. With `COc1ccc(Cl)cc1C(=O)N1CCC(Nc2nc(N)c(C(=O)c3c(F)cccc3F)s2)CC1`, the inhibition is 18%. The same measure, in the same setting: under `C[C@@H](C(=O)N1CCC(Nc2nc(N)c(C(=O)c3c(F)cccc3F)s2)CC1)c1ccccc1` stands 21%; under `Nc1nc(NC2CCN(C(=O)c3cnc4ccccc4n3)CC2)sc1C(=O)c1c(F)cccc1F`, 61%; under `NC(=S)Nc1ccc(C(=O)N2CCC(Nc3nc(N)c(C(=O)c4c(F)cccc4F)s3)CC2)cc1`, 73%. `Nc1nc(NC2CCN(C(=O)c3ccc4ccccc4c3)CC2)sc1C(=O)c1c(F)cccc1F`: the inhibition was 38%.

Consider `CCC(=O)C(=O)N1CCC(Nc2nc(N)c(C(=O)c3c(F)cccc3F)s2)CC1`, for which the inhibition is 15%.

`CCCCCC#CC(=O)N1CCC(Nc2nc(N)c(C(=O)c3c(F)cccc3F)s2)CC1`: the inhibition amounted to 62%. Same read-out and setting: under `Cc1cc(C)c(C(=O)N2CCC(Nc3nc(N)c(C(=O)c4c(F)cccc4F)s3)CC2)cc1C` stands 44%; under `CC(C)C(C(=O)N1CCC(Nc2nc(N)c(C(=O)c3c(F)cccc3F)s2)CC1)c1ccccc1` (stereo not given), 29%.

As for `Nc1nc(NC2CCN(C(=O)Cc3c[nH]c4ccc(F)cc34)CC2)sc1C(=O)c1c(F)cccc1F`, the inhibition is 66%. Consider `C=CCCCCC(=O)N1CCC(Nc2nc(N)c(C(=O)c3c(F)cccc3F)s2)CC1`, for which the inhibition worked out at 16%.

In the case of `CO[C@@H](C(=O)N1CCC(Nc2nc(N)c(C(=O)c3c(F)cccc3F)s2)CC1)c1ccccc1`, the inhibition was determined as 54%.

On to `Nc1nc(NC2CCN(C(=O)c3cnnc4ccccc34)CC2)sc1C(=O)c1c(F)cccc1F`, for which the inhibition was found to be 28%. `CC(=O)N1CSC[C@H]1C(=O)N1CCC(Nc2nc(N)c(C(=O)c3c(F)cccc3F)s2)CC1`: the inhibition came to 20%. Same read-out and setting: under `CC(C)c1ccc(/C=C/C(=O)N2CCC(Nc3nc(N)c(C(=O)c4c(F)cccc4F)s3)CC2)cc1` stands 52%; under `COc1cc(SC)ccc1C(=O)N1CCC(Nc2nc(N)c(C(=O)c3c(F)cccc3F)s2)CC1`, 22%. Same read-out and setting: then `Nc1nc(NC2CCN(C(=O)c3ccc(-c4ccccc4)cc3)CC2)sc1C(=O)c1c(F)cccc1F`, with -11%; and `NC(=O)Nc1ccc(C(=O)N2CCC(Nc3nc(N)c(C(=O)c4c(F)cccc4F)s3)CC2)cc1`, with 76%.

`Nc1nc(NC2CCN(C(=O)[C@H]3CCC(=O)O3)CC2)sc1C(=O)c1c(F)cccc1F`: the inhibition was 76%. On the same count and under the same terms, then `Nc1nc(NC2CCN(C(=O)C3(O)CC3)CC2)sc1C(=O)c1c(F)cccc1F`, with 46%; and `[N-]=[N+]=C1C=C(S(=O)(=O)N2CCC(Nc3nc(N)c(C(=O)c4c(F)cccc4F)s3)CC2)c2ccccc2C1=O`, with -11%.

With `COCCOCC(=O)N1CCC(Nc2nc(N)c(C(=O)c3c(F)cccc3F)s2)CC1`, the inhibition stood at 73%. For the molecule `Cc1ccoc1C(=O)N1CCC(Nc2nc(N)c(C(=O)c3c(F)cccc3F)s2)CC1`, the inhibition came to 31%. The same measure, in the same setting: then `COC(C(=O)N1CCC(Nc2nc(N)c(C(=O)c3c(F)cccc3F)s2)CC1)c1ccccc1` (stereo not given), with 28%; and `CC(=O)CC(C(=O)N1CCC(Nc2nc(N)c(C(=O)c3c(F)cccc3F)s2)CC1)c1ccccc1` (stereo not given), with 17%; and `COc1ccc(CC(=O)N2CCC(Nc3nc(N)c(C(=O)c4c(F)cccc4F)s3)CC2)cc1C`, with 62%. Still for that read-out and setting: under `Nc1nc(NC2CCN(C(=O)c3csnn3)CC2)sc1C(=O)c1c(F)cccc1F` stands 68%; under `CC(C)CCC(=O)N1CCC(Nc2nc(N)c(C(=O)c3c(F)cccc3F)s2)CC1`, 27%. Same read-out and setting: then `N#Cc1ccc(/C=C/C(=O)N2CCC(Nc3nc(N)c(C(=O)c4c(F)cccc4F)s3)CC2)cc1`, with 41%; and `CCC(C)(O)C(=O)N1CCC(Nc2nc(N)c(C(=O)c3c(F)cccc3F)s2)CC1` (stereo not given), with 25%; and `COc1ccc(C(=O)N2CCC(Nc3nc(N)c(C(=O)c4c(F)cccc4F)s3)CC2)cc1Cl`, with 47%. Consider `Nc1nc(NC2CCN(C(=O)/C=C/c3ccc(F)c(F)c3)CC2)sc1C(=O)c1c(F)cccc1F`, for which the inhibition is 61%. As for `Cc1ccc(OCC(=O)N2CCC(Nc3nc(N)c(C(=O)c4c(F)cccc4F)s3)CC2)cc1`, the inhibition is 57%. Still for that read-out and setting: under `Nc1nc(NC2CCN(S(=O)(=O)c3cccc([N+](=O)[O-])c3)CC2)sc1C(=O)c1c(F)cccc1F` stands -23%; under `Nc1nc(NC2CCN(C(=O)Cc3cccc4ccccc34)CC2)sc1C(=O)c1c(F)cccc1F`, 51%.

For the molecule `Nc1nc(NC2CCN(C(=O)Cc3sc(O)nc3O)CC2)sc1C(=O)c1c(F)cccc1F`, the inhibition worked out at 58%.
